Data published in patent publication EP4397674A1, “CASPASE-2 INHIBITOR COMPOUNDS” (Kintsugi Therapeutics S.L., priority 2023, dated 2024).
Values joined by “and” are separate entries in the source; they are usually repeats but may differ in a detail not shown here. Identical values can stand only once.

Experiments:
Type in all cases: biochemical
caspase-8 [1] = biological target: T1, caspase-8 (Homo sapiens, UniProt Q14790); assay: Enzymatic kinetic studies, determination of kobs/I inhibition parameter; conditions: substrate Ac-LEHD-ACC (100uM), 37°C, dot = thousands separator; for kobs/I: pseudo-first-order conditions
T1 construct: made in house
T1 sequence (Q14790 217-374 limits assumed): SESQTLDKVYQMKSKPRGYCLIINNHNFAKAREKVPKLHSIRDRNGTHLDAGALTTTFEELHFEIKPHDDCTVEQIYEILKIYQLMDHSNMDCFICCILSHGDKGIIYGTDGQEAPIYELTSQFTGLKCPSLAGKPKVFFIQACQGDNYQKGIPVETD
T1 sequence (Q14790 385-479 limits assumed): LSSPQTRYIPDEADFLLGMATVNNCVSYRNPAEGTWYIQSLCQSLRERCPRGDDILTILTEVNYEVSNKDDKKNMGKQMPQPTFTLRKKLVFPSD
Description: (§1) The measurement of kobs/l inhibition parameter (second order rate of enzyme inhibition) of synthesized inhibitors towards caspases-2, -3, and -8 was performed using a fMax spectrofluorimeter (Molecular Devices, Sunnyvale, CA, USA) operating in fluorescence kinetic mode in 96-well Corning (Corning, NY, USA) plates. Before kinetic analysis, all caspases were active site-titrated using the zVAD-fmk inhibitor (Cayman Chemical Company, Cat No. 14467). The caspases assay buffer was 10% w/v sucrose, 1M sodium citrate, 20 mM Pipes, 10 mM NaCl, 1 mM EDTA, and 10 mM DTT (pH = 7.3). Buffers were prepared at room temperature, and all kinetic assays were performed at 37°C. The kobs/l parameter was measured under pseudo-first-order kinetic conditions ([I] » [E]). Inhibitor (20uL) was diluted in a 96-well plate and mixed with the appropriate substrate (20uL); NH-ldc-hGlu-Thr(Bzl)-Ser-Asp-ACC (50uM) for caspase-2, Ac-DEVD-ACC (100uM) for caspase-3 and Ac-LEHD-ACC (100uM) for caspase-8. The ACC fluorescence was monitored using 355 nm (excitation) and 460 nm (emission) wavelengths. The substrate-inhibitor mixture (40uL in total) were pre-incubated at 37C for 15 min. At the same time in a separate tube, the caspase was preincubated in assay buffer at 37C, and after 15 min, the enzyme was added to wells (60uL per well, total reaction volume 100uL) and the fluorescence was monitored for 30min, starting immediately. Second-order rate of inhibition (kobs/l) was determined in at least three independent experiments and presented as an average value. GraphPad Prism 7 software was used for calculations (see figure 2).
(§2) The detailed protocol for the expression and purification of human apoptotic caspases can be found elsewhere (Stennicke, 1999).

caspase-3 [2] = biological target: T2, caspase-3 (Homo sapiens, UniProt P42574); assay: as above; conditions: substrate Ac-DEVD-ACC (100uM), 37°C, dot = thousands separator; for kinact/KI: 0.5 h, pH 7.3, pseudo-first-order conditions; for kobs/I: pseudo-first-order conditions
T2 construct: made in house
T2 sequence (P42574 29-175 limits assumed): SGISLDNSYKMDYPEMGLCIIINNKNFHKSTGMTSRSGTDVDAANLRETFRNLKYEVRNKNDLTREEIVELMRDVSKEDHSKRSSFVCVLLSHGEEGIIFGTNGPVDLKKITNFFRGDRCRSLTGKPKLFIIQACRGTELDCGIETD
T2 sequence (P42574 176-277 limits assumed): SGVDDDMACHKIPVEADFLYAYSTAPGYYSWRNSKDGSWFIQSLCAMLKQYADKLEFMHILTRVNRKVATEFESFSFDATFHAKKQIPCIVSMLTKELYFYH
Description: as §1, §2

caspase-2 [3] = biological target: T3, caspase-2 (Homo sapiens, UniProt P42575); assay: as above; parameters: made in house; conditions: for kobs/I: Caspase-2, pseudo-first-order conditions, substrate NH-ldc-hGlu-Thr(Bzl)-Ser-Asp-ACC (50uM), 37°C, dot = thousands separator
T3 sequence (P42575 170-333 limits assumed): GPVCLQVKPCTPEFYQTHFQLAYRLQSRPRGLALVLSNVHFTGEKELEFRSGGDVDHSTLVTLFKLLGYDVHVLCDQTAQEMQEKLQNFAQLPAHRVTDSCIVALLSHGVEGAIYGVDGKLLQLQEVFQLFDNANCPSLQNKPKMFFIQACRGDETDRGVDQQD
T3 sequence (P42575 348-452 limits assumed): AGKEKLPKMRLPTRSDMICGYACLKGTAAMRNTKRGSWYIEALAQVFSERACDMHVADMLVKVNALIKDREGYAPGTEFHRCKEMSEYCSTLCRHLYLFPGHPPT
Description: as §1, §2

caspase-2 [4] = biological target: T3, caspase-2; assay: Kinetic assay of individual fluorogenic substrates NH-Idc-P4-P3-Dab-Asp-ACC (Example 4); conditions: substrate 10µM, caspase-2 10nM, 37°C; relative to NH-Idc-hGlu-Glu(Chx)-Dab-Asp-ACC
Description: Caspase-2 substrates were synthesized according to standard SPPS procedure, purified on HPLC, lyophilized and dissolved in DMSO to the final concentration of 20mM (Poreba et al. 2014, CDD). In particular, the following caspase-2 substrates were synthesized to carry out the present example: [drawing 66] [drawing 67] [drawing 68] [drawing 69] [drawing 70] [drawing 71]
Prior to kinetic assay, substrates (several µL) were diluted in DMSO to the […] (working concentration). Next, 1µL of such substrate was spot into the well of 96-well plate following by the addition of […] of caspase-2 in buffer. Immediately after the enzyme was added, the plate was placed in fluorescence plate reader and the fluorescence was measured over the time in a kinetic mode (excitation 355nm, emission 460nm). The liberation of fluorescence was carried out for 30 minutes, and only linear portion of the plot was taken for analysis to calculate the rate of the reaction. The rate of best cleaved substrate was set to 100% and all other substrates were adjusted accordingly (cleavage rate, %). The final concentration of substrate was 10µM, and the final concentration of caspase-2 was 10nM. The caspase-2 assay buffer was 20mM Pipes, 100mM NaCl, sucrose 10% (w/v), 10mM DTT, pH 7.2-7.4. The caspase-2 was preincubated in buffer at 37°C for 15 min before added to the substrate.

caspase-2 [5] = biological target: T3, caspase-2; assay: P2 substrates screening, rate of substrate hydrolysis (ACC fluorescence); parameters: made in house
Description: (§3) The detailed protocol for the expression and purification of human apoptotic caspases can be found elsewhere (Stennicke, 1999). […] The ACC fluorescence was monitored using 355 nm (excitation) and 460 nm (emission) wavelengths. Before kinetic analysis, all caspases were active site-titrated using the zVAD-fmk inhibitor (Cayman Chemical Company, Cat No. 14467). […] Buffers were prepared at room temperature, and all kinetic assays were performed at 37°C. […] The total volume in a single well was […]. The total assay time was 30 min, but only the linear portion of the fluorescence progress curve was taken for the analysis. The kinetic data were analyzed using Graph Pad Prism software. […]

caspase-8 [6] = biological target: T1, caspase-8; assay: as above; conditions: substrate 10mM (so in the source), caspase-8 40nM, 37°C, rate per 10nM of caspase
Description: as §3

caspase-3 [7] = biological target: T2, caspase-3; assay: as above; conditions: substrate 10mM (so in the source), caspase-3 15nM, 37°C, rate per 10nM of caspase
Description: as §3

Compound | RFU/s, %, average (cleavage rate, best substrate set to 100%) (caspase-2 [4]) | also measured
Cc1cccc(C)c1C(=O)OCC(=O)[C@H](CC(=O)O)NC(=O)[C@H](CCN)NC(=O)[C@@H](NC(=O)[C@H](CCCC(=O)O)NC(=O)[C@@H]1Cc2ccccc2N1)[C@@H](C)OCc1ccccc1 [NH-Idc-hGlu-Thr(Bzl)-Dab-Asp-AOMK] |  | kinact/KI (caspase-8 [1]; 0.5 h, pH 7.3, pseudo-first-order conditions): 415 M⁻¹ s⁻¹; kinact/KI (caspase-3 [2]): 443 M⁻¹ s⁻¹; kobs/I (caspase-2 [3]): 342.000 M⁻¹ s⁻¹
Cc1cccc(C)c1C(=O)OCC(=O)[C@H](CC(=O)O)NC(=O)[C@H](CCCCN)NC(=O)[C@@H](NC(=O)[C@H](CCCC(=O)O)NC(=O)[C@@H]1Cc2ccccc2N1)[C@@H](C)OCc1ccccc1 [NH-Idc-hGlu-Thr(Bzl)-Lys-Asp-AOMK] |  | kobs/I (caspase-8 [1]): 9.900 M⁻¹ s⁻¹; kobs/I (caspase-3 [2]): 2.570 M⁻¹ s⁻¹; kobs/I (caspase-2 [3]): 400.000 M⁻¹ s⁻¹
Cc1cccc(C)c1C(=O)OCC(=O)[C@H](CC(=O)O)NC(=O)[C@H](CCCN)NC(=O)[C@@H](NC(=O)[C@H](CCCC(=O)O)NC(=O)[C@@H]1Cc2ccccc2N1)[C@@H](C)OCc1ccccc1 [NH-Idc-hGlu-Thr(Bzl)-Orn-Asp-AOMK] |  | kobs/I (caspase-8 [1]): 2.300 M⁻¹ s⁻¹; kinact/KI (caspase-3 [2]): 636 M⁻¹ s⁻¹; kobs/I (caspase-2 [3]): 390.000 M⁻¹ s⁻¹
Cc1cccc(C)c1C(=O)OCC(=O)[C@H](CC(=O)O)NC(=O)[C@H](CO)NC(=O)[C@@H](NC(=O)[C@H](CCCC(=O)O)NC(=O)[C@@H]1Cc2ccccc2N1)[C@@H](C)OCc1ccccc1 [NH-Idc-hGlu-Thr(Bzl)-Ser-Asp-AOMK, reference compound] |  | kobs/I (caspase-8 [1]): 11.600 M⁻¹ s⁻¹; kobs/I (caspase-3 [2]): 21.000 M⁻¹ s⁻¹; kobs/I (caspase-2 [3]): 665.000 M⁻¹ s⁻¹
NH-Idc-Asp-Abu-Dab-Asp-ACC | 0,0% | 
NH-Idc-Asp-Glu(Chx)-Dab-Asp-ACC | 0,2% | 
NH-Idc-Asp-Glu-Dab-Asp-ACC | 0,2% | 
NH-Idc-Asp-Thr(Bzl)-Dab-Asp-ACC | 0,0% | 
NH-Idc-Asp-Val-Dab-Asp-ACC | 0,3% | 
NH-Idc-Ile-Abu-Dab-Asp-ACC | 0,0% | 
NH-Idc-Ile-Glu(Chx)-Dab-Asp-ACC | 6,3% | 
NH-Idc-Ile-Glu-Dab-Asp-ACC | 0,8% | 
NH-Idc-Ile-Thr(Bzl)-Dab-Asp-ACC | 0,0% | 
NH-Idc-Ile-Val-Dab-Asp-ACC | 0,0% | 
NH-Idc-Leu-Abu-Dab-Asp-ACC | 0,0% | 
NH-Idc-Leu-Glu(Chx)-Dab-Asp-ACC | 6,9% | 

Compound | RFU/s, %, average (cleavage rate, best substrate set to 100%) (caspase-2 [4]) | also measured
NH-Idc-Leu-Glu-Dab-Asp-ACC | 0,7% | 
NH-Idc-Leu-Thr(Bzl)-Dab-Asp-ACC | 0,0% | 
NH-Idc-Leu-Val-Dab-Asp-ACC | 0,0% | 
NH-Idc-hGlu-Abu-Dab-Asp-ACC | 26,2% | 
NH-Idc-hGlu-Glu(Chx)-Dab-Asp-ACC | 100,0% and 91,7% | 
NH-Idc-hGlu-Glu(Me)-Dab-Asp-ACC | 76,1% | 
NH-Idc-hGlu-Glu-Dab-Asp-ACC | 75,2% and 72,5% | 
NH-Idc-hGlu-Thr(Bzl)-Dab-Asp-ACC | 5,9% and 4,6% | 
NH-Idc-hGlu-Thr(Bzl)-Dap-Asp-AOMK |  | kobs/I (caspase-8 [1]): 5.300 M⁻¹ s⁻¹; kobs/I (caspase-3 [2]): 8.300 M⁻¹ s⁻¹; kobs/I (caspase-2 [3]): 372.000 M⁻¹ s⁻¹; SELECTIVITY Caspase2 vs.Caspase3, C2/C3 kobs/I (caspase-2 [3]; division of kobs/I values, caspase-2/caspase-3): 44.8; SELECTIVITY Caspase2 vs.Caspase8, C2/C8 kobs/I (caspase-2 [3]; division of kobs/I values, caspase-2/caspase-8): 70.2
NH-Idc-hGlu-Val-Dab-Asp-ACC | 5,6% and 6,5% | 
NH-Idc-hLeu-Abu-Dab-Asp-ACC | 0,0% | 
NH-Idc-hLeu-Glu(Chx)-Dab-Asp-ACC | 0,7% | 
NH-Idc-hLeu-Glu-Dab-Asp-ACC | 0,0% | 
NH-Idc-hLeu-Thr(Bzl)-Dab-Asp-ACC | 0,0% | 
NH-Idc-hLeu-Val-Dab-Asp-ACC | 0,0% | 
NH-ldc-hGlu-Thr(Bzl)-Ser-Asp-ACC |  | Casp-2 vs Casp-3 (caspase-2 [5]; ratio of hydrolysis rates caspase-2/caspase-3): 38,49; Casp-2 vs Casp-8 (caspase-2 [5]; ratio of hydrolysis rates caspase-2/caspase-8): 27,82; rate of substrate hydrolysis, Caspase-2 (caspase-2 [5]; substrate 10mM (so in the source), caspase-2 5nM, 37°C, rate per 10nM of caspase): 182,81 RFU/s/10nM; rate of substrate hydrolysis, Caspase-8 (caspase-8 [6]): 6,57 RFU/s/10nM; rate of substrate hydrolysis, Caspase-3 (caspase-3 [7]): 4,75 RFU/s/10nM
